The values below are quoted from earlier work in patent publication US10842882B2, “Amatoxin-antibody conjugates” ([…] GMBH, priority 2015, dated 2020).

The target of this series is RNA-polymerase II (Homo sapiens, UniProt P24928). The following applies: amanitin/RNA-polymerase II complex, background statement.

Broadly, the Kd is the equilibrium constant for the complex coming apart. On to amanitin, for which the Kd is 3 nM.
